Where two headings read alike, the source gives them in different places. Each block holds one compound with its values, some of them ahead of it.
Biological target: T1, human Nav1.1 (Homo sapiens, UniProt P35498)
T1 construct: host or cells: HEK293
Experiment: Amplification of Nav1.1-derived voltage-gated sodium current (Nav1.1 current), automated patch clamp (Test 1)
Type: cell-based
Conditions: for activation at 10 µM: HEK293, Concentration for evaluation 10 μM
Protocol: Test 1: Evaluation of the Amplification of Nav1.1-Derived Voltage-Gated Sodium Current (Nav1.1 Current) by Using a Cell Line Stably Expressing Human Nav1.1
(1) Preparation of Test Compound Solution
Test compounds were prepared by dissolving in DMSO at 200 times of the concentration at evaluation, and diluting the obtained solution to twice the concentration of evaluation with an extracellular fluid (135 mmol/L NaCl, 4 mmol/L KCl, 1 mmol/L MgCl2, 5 mmol/L CaCl2, 5 mmol/L Glucose, 10 mmol/L HEPES).
(2) Induction and Measurement of Nav1.1 Current
A HEK293 cell line stably expressing human Nav1.1 (cat #CYL3009, Eurofins DiscoverX Products, LLC, Human Embryonic Kidney 293) was purchased, and used in the present test. Nav1.1 current was induced by stimulating Ramp wave voltage. Detection of current which accompanied with the stimulation of voltage was carried out by a patch-clamp voltage-clamp method using HTS automated patch clamp system (SynchroPatch 768PE, Nanion Technologies GmbH, Germany). Only cells with more than 500 pA of voltage-gated sodium channel current were used for the evaluation of the activity of compounds on Nav1.1 current because there was the possibility that currents derived from endogenous voltage-gated sodium channels accounted for large proportion in cells with less than 500 pA of voltage-gated sodium channel current which was induced by stimulating Ramp wave voltage.
(3) Pharmacological Effect on Nav1.1 Current
The effect of test compounds on the amplification of Nav1.1-derived voltage-gated sodium current was evaluated by using a cell line stably expressing human Nav1.1 and HTS automated patch clamp system. In other words, test compounds were added in an extracellular fluid containing 1% DMSO, and evaluated as a change of the peak value of Nav1.1 current and the area under the curve (AUC).
(4) Method for Pharmacological Evaluation
The Nav1.1 current amplification rates of test compounds were calculated by the following formula:
Nav1.1 current amplification rate (%)=100×[the peak value of Nav1.1 current or the area under the curve after the addition of test compounds]/[the peak value of Nav1.1 current or the area under the curve before the addition of test compounds]−100

[1] = Concentration for evaluation 10 μM, HEK293 cell line stably expressing human Nav1.1
[2] = Concentration for evaluation 1 μM, HEK293 cell line stably expressing human Nav1.1
[3] = Concentration for evaluation 3 μM, HEK293 cell line stably expressing human Nav1.1
[4] = concentration for evaluation 1 μM, HEK293 stably expressing human Nav1.1
[5] = HEK293 cell line stably expressing human Nav1.1, read-out: Nav1.1 current amplification rate (%)
[6] = HEK293, concentration for evaluation 1 μM, HEK293 stably expressing human Nav1.1, read-out: Nav1.1 current amplification rate (%)

Compound: CC1CCN(c2ccc(=O)n(CC(=O)Nc3ccnc(C(F)(F)F)c3)n2)CC1 [Example 52]
Nav1.1 current amplification rate (%) [1]: 248%

Compound: CC1CC=C(c2ccc(=O)n(CC(=O)Nc3ccc4ncnn4n3)n2)CC1 (centres unmarked) [Example 350]
Nav1.1 current amplification rate (%) [2]: 31%

Compound: CC(C)CCOc1ncc2cnn(CC(=O)Nc3ccn4ncnc4c3)c2n1 [Example 780]
Nav1.1 current amplification rate (%) [2]: 10%

Compound: CC1CC=C(c2ccc(=O)n(CC(=O)Nc3ccn4ncnc4c3)n2)CC1 (centres unmarked) [Example 330]
Nav1.1 current amplification rate (%) [2]: 191%

Compound: CC1(C)CC=C(c2ccc(=O)n(CC(=O)N3CCc4c(C5CN(C(=O)CO)C5)cccc43)n2)CC1 [Example 437]
Nav1.1 current amplification rate (%) [3]: 582%

Compound: Cc1ccc(-c2cnc3cnn(CC(=O)N4CCN(c5ccncc5)CC4)c3n2)c(F)c1 [Example 743]
activation at 50 µM (HEK293, Concentration for evaluation 50 μM, HEK293 cell line stably expressing human Nav1.1, read-out: Nav1.1 current amplification rate (%)): 39%

Compound: CC1(C)CC=C(c2ccc(=O)n(CC(=O)N3CCN(c4ccccn4)CC3)n2)CC1 [Example 439]
Nav1.1 current amplification rate (%) [1]: 87%

Compound: CC1CC=C(c2ccc(=O)n(CC(=O)N3CCc4c(C5CNC5)cccc43)n2)CC1 (centres unmarked) [Example 299]
Nav1.1 current amplification rate (%) [3]: 6%

Compound: Cc1cc(=O)n(CC(=O)Nc2ccn3ccnc3c2)nc1C1=CCC(C)(C)CC1 [Example 461]
Nav1.1 current amplification rate (%) [1]: 337%

Compound: O=C(Cn1nc(C2=CCC(C(F)(F)F)CC2)ccc1=O)N1CCN(c2cncc(F)c2)CC1 (centres unmarked) [Example 487]
Nav1.1 current amplification rate (%) [1]: 190%

Compound: CC1(C)CC=C(c2ccc(=O)n(CC(=O)N3CCN(c4cccnc4)CC3)n2)CC1 [Example 440]
Nav1.1 current amplification rate (%) [1]: 196%

Compound: CO[C@@H]1CCN(Cc2cccc3c2CCN3C(=O)Cn2nc(C3=CCC(C)CC3)ccc2=O)C1 (some centres unmarked) [Example 273]
Nav1.1 current amplification rate (%) [2]: 77%

Compound: CN(c1cnc2cnn(CC(=O)N3CCc4c3cccc4C(F)(F)F)c2n1)C1CC1 [Example 731]
Nav1.1 current amplification rate (%) [1]: 102%

Compound: COc1cc(=O)n(CC(=O)Nc2ccn3ccnc3c2)nc1C1=CCC(C)(C)CC1 [Example 459]
Nav1.1 current amplification rate (%) [1]: 118%

Compound: CC1CCN(c2ccc(=O)n(CC(=O)Nc3ccnc(N4CCOCC4)c3)n2)CC1 [Example 66]
Nav1.1 current amplification rate (%) [1]: 49%

Compound: COc1cc(N2CCN(C(=O)Cn3nc(C4=CCC(C)CC4)ccc3=O)CC2)ccc1F (centres unmarked) [Example 413]
Nav1.1 current amplification rate (%) [3]: 27%

Compound: CC1CC=C(c2ccc(=O)n(CC(=O)Nc3ccnc(C4=CCN(C)C4)c3)n2)CC1 (centres unmarked) [Example 371]
Nav1.1 current amplification rate (%) (Concentration for evaluation 50 μM, HEK293 cell line stably expressing human Nav1.1): 64%

Compound: Cc1nc2ccc(NC(=O)Cn3nc(N4CCC(C)CC4)ccc3=O)cc2o1 [Example 68]
Nav1.1 current amplification rate (%) [1]: 42%

Compound: CC1CC=C(c2ccc(=O)n(CC(=O)Nc3ccn4c(C5CC5)cnc4c3)n2)CC1 (centres unmarked) [Example 335]
Nav1.1 current amplification rate (%) [3]: 187%

Compound: CN(c1cnc2cnn(CC(=O)Nc3ccn4ncnc4c3)c2n1)C1CC1(C)C (centres unmarked) [Example 631]
Nav1.1 current amplification rate (%) [2]: 49%

Compound: COc1ncc(C2=CCN(C(=O)Cn3nc(C4=CCC(C)CC4)ccc3=O)CC2)cn1 (centres unmarked) [Example 400]
Nav1.1 current amplification rate (%) [1]: 238%

Compound: Cc1cc(C2=CCC(C)(C)CC2)nn(CC(=O)Nc2ccn3ccnc3c2)c1=O [Example 460]
Nav1.1 current amplification rate (%) [1]: 221%

Compound: CC1CC=C(c2ccc(=O)n(CC(=O)Nc3ccc4oc(CN5CCC5)nc4c3)n2)CC1 (centres unmarked) [Example 333]
Nav1.1 current amplification rate (%) [3]: 25%

Compound: Cc1cnc(-c2cnc3cnn(CC(=O)Nc4ccn5ncnc5c4)c3n2)s1 [Example 575, 2-[6-(5-Methyl-1,3-thiazol-2-yl)-1H-pyrazolo[3,4-b]pyrazin-1-yl]-N-([1,2,4]triazolo[1,5-a]pyridin-7-yl)acetamide]
activation at 1 µM (HEK293, Concentration for evaluation 1 μM, HEK293 cell line stably expressing human Nav1.1, read-out: Nav1.1 current amplification rate (%)): 84%

Compound: Cc1ccc(-c2ncc3cnn(CC(=O)Nc4ccn5ncnc5c4)c3n2)cc1 [Example 787]
Nav1.1 current amplification rate (%) [2]: 50%

Compound: Cc1cc(NC(=O)Cn2nc(N3CCC(C)CC3)ccc2=O)cc2ncoc12 [Example 96]
Nav1.1 current amplification rate (%) [1]: 105%

Compound: CC1CCN(c2nn(CC(=O)Nc3ccc(C#N)cc3)c(=O)c3c2CCCC3)CC1 [Example 36]
Nav1.1 current amplification rate (%) [1]: 312%

Compound: CC1CC=C(c2ccc(=O)n(CC(=O)N3CCc4c(CN5CCCCC5)cccc43)n2)CC1 (centres unmarked) [Example 282]
Nav1.1 current amplification rate (%) [2]: 26%

Compound: CN(c1cnc2cnn(CC(=O)N3CCN(c4cccnc4)CC3)c2n1)C1CCCC1 [Example 673]
Nav1.1 current amplification rate (%) [3]: 20%

Compound: CC1CCN(c2ccc(=O)n(CC(=O)Nc3ccn4ccnc4c3)n2)CC1 [Example 72]
Nav1.1 current amplification rate (%) [1]: 119%

Compound: CC1CC=C(c2ccc(=O)n(CC(=O)Nc3ccc(C#N)cc3)n2)CC1 (centres unmarked) [Example 41]
Nav1.1 current amplification rate (%) [1]: 324%

Compound: Cc1cc(NC(=O)Cn2nc(C3=CCC(C)CC3)ccc2=O)cc2ncnn12 (centres unmarked) [Example 352]
Nav1.1 current amplification rate (%) [2]: 155%

Compound: O=C(Cn1nc(C2=CCC(F)(F)CC2)ccc1=O)N1CCN(c2cncc(F)c2)CC1 [Example 489]
Nav1.1 current amplification rate (%) [1]: 29%

Compound: CC1CC=C(c2ccc(=O)n(CC(=O)N3CC=C(c4ccccc4)C3)n2)CC1 (centres unmarked) [Example 388]
Nav1.1 current amplification rate (%) [1]: 37%

Compound: CC1CC=C(c2ccc(=O)n(CC(=O)N3CCc4c(CN5CCOCC5)cccc43)n2)CC1 (centres unmarked) [Example 270]
Nav1.1 current amplification rate (%) [3]: 481%

Compound: CN(c1cnc2cnn(CC(=O)Nc3cnc4ncccc4c3)c2n1)C1CC1 [Example 723]
Nav1.1 current amplification rate (%) [2]: 95%

Results, then the compound that gave them:

Nav1.1 current amplification rate (%) [1]: 40%
Compound: N#Cc1ccc(NC(=O)Cn2nc(N3CCCCC3)ccc2=O)cc1 [Example 3]

Nav1.1 current amplification rate (%) [2]: 174%
Compound: CC1CCN(c2ncc3cnn(CC(=O)Nc4ccn5ncnc5c4)c3n2)CC1(F)F (centres unmarked) [Example 788]

Nav1.1 current amplification rate (%) (concentration for evaluation 50 μM, HEK293 stably expressing human Nav1.1): 195%
Compound: CN(c1ncc2cnn(CC(=O)Nc3ccc4ncnn4c3)c2n1)C1CC1 [Example 818]

Nav1.1 current amplification rate (%) [1]: 205%
Compound: N#Cc1ccc(NC(=O)Cn2nc(N3CCCCCC3)ccc2=O)cc1 [Example 11]

Nav1.1 current amplification rate (%) [4]: 38%
Compound: CC1CCN(c2ccc3cnn(CC(=O)Nc4ccc5ncnn5c4)c3n2)CC1 [Example 872]

activation at 10 µM [5]: 27%
Compound: CN(c1cnc2cnn(CC(=O)NCCc3ccccc3F)c2n1)C1CC2(CC2)C1 [Example 750]

Nav1.1 current amplification rate (%) [4]: 93%
Compound: CN(CC1(C)CC1)c1ncc2cnn(CC(=O)Nc3ccn4ncnc4c3)c2n1 [Example 804]

Nav1.1 current amplification rate (%) [4]: 35%
Compound: CN(CC1CC(F)(F)C1)c1ncc2cnn(CC(=O)Nc3ccn4ncnc4c3)c2n1 [Example 799]

Nav1.1 current amplification rate (%) [1]: 124%
Compound: N#Cc1ccc(NC(=O)Cn2nc(N3CCC(C(F)(F)F)CC3)ccc2=O)cc1 [Example 10]

Nav1.1 current amplification rate (%) [4]: 19%
Compound: O=C(Cn1ncc2ccc(C3=CCCCO3)nc21)Nc1ccn2ccnc2c1 [Example 868]

Nav1.1 current amplification rate (%) [1]: 59%
Compound: N#Cc1ccc(NC(=O)Cn2nc(N3CCCC(C(F)(F)F)C3)ccc2=O)cc1 (centres unmarked) [Example 16]

activation at 1 µM [6]: 87%
Compound: CN(c1ncc2cnn(CC(=O)Nc3cnc4cccnc4c3)c2n1)C1CC2(CC2)C1 [Example 842]

Nav1.1 current amplification rate (%) [4]: 86%
Compound: O=C(Cn1ncc2cnc(C3=CCC(F)(F)CC3)nc21)Nc1ccc2cncnc2c1 [Example 810]

activation at 1 µM [6]: 158%
Compound: CN(CC1CCC1)c1ncc2cnn(CC(=O)Nc3cnc4cccnc4c3)c2n1 [Example 846]

activation at 1 µM [6]: 68%
Compound: N#Cc1ccc(NC(=O)Cn2ncc3ccc(N4CCC5(CC5)C(F)(F)C4)nc32)cn1 [Example 890]

Nav1.1 current amplification rate (%) [4]: 42%
Compound: CN(CC1(C)CC1)c1ncc2cnn(CC(=O)Nc3ccc4ncnn4c3)c2n1 [Example 822]

Nav1.1 current amplification rate (%) [4]: 82%
Compound: CC1CCN(c2ccc3cnn(CC(=O)Nc4ccn5ncnc5c4)c3n2)CC1 [Example 853]

Nav1.1 current amplification rate (%) [2]: 44%
Compound: CN(c1cnc2cnn(CC(=O)Nc3ccc(C#N)nc3)c2n1)C1CC1 [Example 709]

activation at 1 µM [6]: 204%
Compound: CC1CC=C(c2ncc3cnn(CC(=O)Nc4ccn5ccnc5c4)c3n2)CC1 (centres unmarked) [Example 832]

Nav1.1 current amplification rate (%) [1]: 311%
Compound: N#Cc1ccc(NC(=O)Cn2nc(N3CCC4(CCC4)C3)ccc2=O)cc1 [Example 34]

Nav1.1 current amplification rate (%) [4]: 54%
Compound: N#Cc1ccc(NC(=O)Cn2ncc3cnc(N4CCC5(CC5)C(F)(F)C4)nc32)nc1 [Example 830]

activation at 10 µM [5]: 5%
Compound: N#Cc1cncc(NC(=O)Cn2nc(N3CCCCC3)ccc2=O)c1 [Example 108]

Nav1.1 current amplification rate (%) [2]: 41%
Compound: O=C(Cn1ncc2cnc(N3CCC4(CCC4)CC3)nc21)Nc1ccn2ncnc2c1 [Example 766]

Source: patent publication US20230109839A1, “THERAPEUTIC AGENT FOR TAUOPATHIES” (SUMITOMO PHARMA CO., LTD., priority 2020, published 2023)
